Laboratory results taken from paper PMC2359919, “Molecular targeting of retinoic acid metabolism in neuroblastoma: the role of the CYP26 inhibitor R116010 in vitro and in vivo” (British Journal of Cancer, 2007).

What was measured:
[1] = tested on: mouse mammary carcinoma model; design: method as in Van Heusden et al, 2002; details: ref Van Heusden et al, 2002; cited from earlier work
RA metabolism = assay: Effect of R116010 on retinoid concentrations (plasma, liver, tumour) in an SH-SY5Y xenograft model, LC/MS; format: in vivo, CD-1 nude mice
Experimental: All in vivo experiments were approved by the relevant institutional animal welfare committees, and performed according to national law. Female athymic nude mice (CD-1 nu/nu, Charles River) used for antitumour studies were maintained and handled in isolators, under specific pathogen-free conditions, at 24°C with a 12 h light, 12 h dark cycle. Tumours were generated by implantation of SH-SY5Y cells subcutaneously (s.c.) into one flank of CD-1 nude mice (1 × 10^7 cells per animal).
Treatments began when the tumours were between 7 and 10 mm in length and breadth. Retinoids and R116010 were initially dissolved in DMSO before 10- or 20-fold dilutions in PBS, respectively. For pharmacokinetic studies, the animals were dosed with ATRA or 13cisRA (each 100 mg kg^−1) orally for 0.5, 2 and 6 h. For metabolism studies, animals were treated with R116010 orally at doses of 1.25 or 2.5 mg kg^−1 either immediately before the retinoid being studied, or up to three times (over 1–2 days) before dosing with the retinoid. At termination of experiments, animals were bled under terminal anaesthesia then killed by cervical dislocation. Plasma was immediately removed from the blood by centrifugation at 1000 g for 5 min and snap-frozen in liquid nitrogen in amber Eppendorfs. Tumour and liver samples were removed and snap-frozen, wrapped in foil, in liquid nitrogen.
(§1) Cell pellets obtained from retinoid incubations were re-suspended in 2 ml cell culture medium and disrupted by passing the samples several times through a syringe and hypodermic needle (25G × 1 inches, 0.5 mm × 25 mm; Terumo, Somerset, NJ, USA). Tumour and liver tissues were re-suspended in PBS and homogenised (T25 homogeniser, IKA Laboratories, Staufen, Germany). Retinoids were extracted as described previously ([Veal et al, 2002]; [Armstrong et al, 2005b]). Samples were reconstituted in 200 μl mobile phase A (n-hexane:dichloromethane:propan-2-ol, 400 : 1 : 0.27) and analysed by normal-phase HPLC as described previously ([Veal et al, 2002]). For LC/MS analysis, samples were reconstituted in 200 μl mobile phase A (50% acetonitrile, 50% (0.2%) acetic acid, v v^−1).
(§2) Resolution of retinoids was performed with a Luna C18(2) column (3 μm, 50 mm × 2 mm) using a Perkin Elmer LC (Beaconsfield, UK) system, consisting of a vacuum degasser, two series 200 pumps, a thermostatically controlled series 200 autosampler and a Waters 2487 UV absorbance detector. Retinoic isomers and metabolites were separated by gradient reversed-phase chromatography. An injection volume of 20 μl with a flow rate of 0.2 ml min^−1 was used with mobile phase A (50% acetonitrile, 50% (0.2%) acetic acid, v v^−1) and mobile phase B (acetonitrile, 0.1% acetic acid, v v^−1). Linear gradients were employed between the specified times as follows: 0, 100% A; 5 min, 100% A; 15 min, 100% B; 20 min, 100% B; 23 min, 100% A; 35 min, 100% A. An Applied Biosystems (Warrington, UK) API-2000 LC/MS/MS triple Q (quadrupole) mass spectrometer with electrospray ionisation source, controlled by Analyst software, was operated in single quadrupole negative mode for the detection of compounds.

[2] = tested on: SH-SY5Y, NGP, SH-EP and GIMEN cells; assay: Intracellular all-trans-4-oxo-RA levels in neuroblastoma cells, LC/MS; format: cell-based, human
Experimental: SH-SY5Y, SH-EP (N- and S-type cells respectively derived from the parental line SK-N-SH), LAN6, IMR-32, NGP and GIMEN neuroblastoma cell lines were cultured routinely in RPMI 1640 medium containing fetal calf serum (10%) and L-glutamine (2 mM). Cells were grown at 37°C in a humidified incubator containing 5% CO2.
13-cis-Retinoic acid and ATRA were dissolved in DMSO and diluted in cell culture medium to obtain final concentrations of 0.1–10 μM. The final concentration of DMSO in all cases was <0.2%. All experiments were performed in dim light and tubes containing retinoids were wrapped in aluminium foil.
as §1, §2

[3] = 13cisRA 100 mg kg^−1 with increasing doses of R116010, 6 h
[4] = ATRA-treated mice (100 mg kg^−1) with R116010, 6 h

Q: Which “Antitumour activity as a single agent” value [1] does the source give for `C[C@@H]([C@H](c1ccc(Nc2nc3ccccc3s2)cc1)n1ccnc1)N(C)C` [R116010] here?
A: Its value is “exhibits antitumour activity”.

Q: What about the “Increase in 13cisRA plasma concentration” value (RA metabolism; 13cisRA 100 mg kg^−1 after four doses of R116010 at 2.5 mg kg^−1 vs 13cisRA alone, 6 h) of the same compound?
A: The value was ≤ 4.6 fold.

Q: And the “Effect on 13cisRA plasma concentrations” value (RA metabolism; 13cisRA 100 mg kg^−1 with increasing doses of R116010 (1.25; 2.5 mg kg^−1 x1, x2, x4) vs retinoid alone, 6 h)?
A: The value was “significant increases”.

Q: What about the “Effect on plasma 13cis-4-oxo-RA concentrations” value (RA metabolism; [3]) of the same compound?
A: Its value is “no significant dose-dependent effect”.

Q: And the “Effect on plasma AT-4-oxo-RA concentrations” value (RA metabolism; [3])?
A: The value was “apparent linear increase”.

Q: What about the “Effect on ATRA plasma concentrations” value (RA metabolism; 13cisRA 100 mg kg^−1 with increasing doses of R116010 vs retinoid alone, 6 h) of the same compound?
A: Its value is “significant increases”.

Q: What about the “Effect on liver ATRA levels” value (RA metabolism; 13cisRA 100 mg kg^−1 with one and two doses of 2.5 mg kg^−1 R116010, 6 h) of the same compound?
A: The value was “increased slightly”.

Q: And the “Tumour 13cisRA levels with R116010” value (RA metabolism; 13cisRA 100 mg kg^−1 with single dose R116010 at 2.5 mg kg^−1, SH-SY5Y tumour, 6 h)?
A: The value was 0.59 ± 0.07 µg/g.

Q: What about the “Effect on levels of the 4-oxo-RA metabolites in tumour” value (RA metabolism; 13cisRA or ATRA in combination with R116010 vs retinoid alone) of the same compound?
A: The value was “no significant differences”.

Q: What about the “Effect on levels of ATRA in tumour samples” value (RA metabolism; 13cisRA-treated mice with R116010) of the same compound?
A: The value was “not significantly affected”.

Q: And the “Increase in plasma ATRA concentrations” value (RA metabolism; ATRA 100 mg kg^−1 after four doses of R116010 at 2.5 mg kg^−1 vs ATRA alone, 6 h)?
A: The value was ≤ 2.3 fold.

Q: What about the “Effect on liver 13cisRA or ATRA levels” value (RA metabolism; ATRA 100 mg kg^−1 in combination with R116010, 6 h) of the same compound?
A: Its value is “No significant increases”.

Q: What about the “Effect on liver 13cis-4-oxo-RA and AT-4-oxo-RA levels” value (RA metabolism; ATRA 100 mg kg^−1 in combination with R116010 or after R116010 pretreatment, 6 h) of the same compound?
A: The value was “significant decreases”.

Q: And the “Effect on plasma 13cisRA concentrations” value (RA metabolism; [4])?
A: The value was “marginal”.

Q: What about the “Effect on plasma AT-4-oxo-RA levels” value (RA metabolism; [4]) of the same compound?
A: The value was “no effect”.

Q: What about the “Effect on liver 13cisRA levels” value (RA metabolism; R116010 before 13cisRA 100 mg kg^−1, 6 h) of the same compound?
A: The value was “not associated with 13cisRA levels being different from control”.

Q: What about the “Effect on liver 13cis-4-oxo-RA and AT-4-oxo-RA concentrations” value (RA metabolism; R116010 before 13cisRA 100 mg kg^−1, all conditions, 6 h) of the same compound?
A: Its value is “significantly lower levels”.

Q: What about the “Effect on levels of retinoids in tumour tissue” value (RA metabolism; R116010 before ATRA) of the same compound?
A: Its value is “no significant differences”.

Q: And the “Decrease in AT-4-oxo-RA levels” value ([2]; NGP cells, 10 μM 13cisRA with 10 μM R116010, 24 h)?
A: The value was 13.2 fold.

Q: What about the “Reduction in intracellular AT-4-oxo-RA levels” value ([2]; NGP cells, 10 μM ATRA with 10 μM R116010, 24 h) of the same compound?
A: The value was 3.8 fold.

Q: And the “Effect on AT-4-oxo-RA levels” value ([2]; SH-EP and GIMEN cells, 10 μM 13cisRA with 10 μM R116010, 24 h)?
A: The value was “no significant effect”.

Q: And the “Decrease in AT-4-oxo-RA levels” value ([2]; SH-SY5Y cells, 10 μM 13cisRA with 10 μM R116010, 24 h)?
A: The value was 3.5 fold.

Q: And the “Reduction in intracellular AT-4-oxo-RA levels” value ([2]; SH-SY5Y cells, 10 μM ATRA with 10 μM R116010, 24 h)?
A: Its value is 3 fold.

Q: What about the “Effect on intracellular AT-4-oxo-RA levels” value ([2]; low CYP26-expressing cell lines (SH-EP, GIMEN), 10 μM ATRA with 10 μM R116010, 24 h) of the same compound?
A: Its value is “no significant effect”.
